Experimental data: the NIST ThermoML archive (doi:10.1021/acs.jced.8b01135)

Test: xn = mol fraction of the nth substance listed
Conditions: 102 kPa, Liquid; for speed of sound: Frequency=3 MHz, Single path-length method; for mass density: Vibrating tube method; for viscosity: Concentric cylinders viscometry

CCCCCCCCCCCCC1CCCCC1 [dodecylcyclohexane] + CCCCCCCCCCCC
Conditions | mass density [kg/m3] | speed of sound [m/s] | viscosity [mPa·s]
288.15 K, x1 = 0.1005 | 762.18 | 1333.2 | –
288.15 K, x1 = 0.2001 | 771.24 | 1348 | –
288.15 K, x1 = 0.298 | 779.52 | 1361.9 | –
288.15 K, x1 = 0.4031 | 787.8 | 1375.7 | –
288.15 K, x1 = 0.5001 | 794.95 | 1387.9 | –
288.15 K, x1 = 0.6005 | 801.89 | 1400 | –
288.15 K, x1 = 0.7003 | 808.42 | 1411.3 | –
288.15 K, x1 = 0.7997 | 814.5 | 1421.8 | –
288.15 K, x1 = 0.8994 | 820.23 | 1432.1 | –
288.15 K, x1 = 1 | 825.71 | 1441.5 | –
293.15 K, x1 = 0.1005 | 758.6 | 1313.7 | 1.82
293.15 K, x1 = 0.2001 | 767.69 | 1328.7 | 2.14
293.15 K, x1 = 0.298 | 776 | 1342.6 | 2.53
293.15 K, x1 = 0.4031 | 784.32 | 1356.6 | 3.03
293.15 K, x1 = 0.5001 | 791.49 | 1368.9 | 3.55
293.15 K, x1 = 0.6005 | 798.47 | 1381 | 4.17
293.15 K, x1 = 0.7003 | 805.01 | 1392.4 | 4.9
293.15 K, x1 = 0.7997 | 811.11 | 1403.1 | 5.73
293.15 K, x1 = 0.8994 | 816.87 | 1413.3 | 6.68
293.15 K, x1 = 1 | 822.36 | 1422.9 | 7.76
298.15 K, x1 = 0.1005 | 755.01 | 1294.4 | –
298.15 K, x1 = 0.2001 | 764.14 | 1309.5 | –
298.15 K, x1 = 0.298 | 772.48 | 1323.5 | –
298.15 K, x1 = 0.4031 | 780.84 | 1337.6 | –
298.15 K, x1 = 0.5001 | 788.04 | 1350 | –
298.15 K, x1 = 0.6005 | 795.04 | 1362.1 | –
298.15 K, x1 = 0.7003 | 801.61 | 1374 | –
298.15 K, x1 = 0.7997 | 807.73 | 1384.7 | –
298.15 K, x1 = 0.8994 | 813.51 | 1395.1 | –
298.15 K, x1 = 1 | 819.02 | 1404.8 | –
303.15 K, x1 = 0.1005 | 751.42 | 1275.3 | 1.53
303.15 K, x1 = 0.2001 | 760.58 | 1290.5 | 1.75
303.15 K, x1 = 0.298 | 768.97 | 1304.6 | 2.05
303.15 K, x1 = 0.4031 | 777.36 | 1318.8 | 2.43
303.15 K, x1 = 0.5001 | 784.59 | 1331.3 | 2.82
303.15 K, x1 = 0.6005 | 791.62 | 1343.5 | 3.28
303.15 K, x1 = 0.7003 | 798.2 | 1355.4 | 3.79
303.15 K, x1 = 0.7997 | 804.35 | 1366.3 | 4.38
303.15 K, x1 = 0.8994 | 810.15 | 1376.6 | 5.05
303.15 K, x1 = 1 | 815.68 | 1386.3 | 5.81
313.15 K, x1 = 0.1005 | 744.23 | 1237.7 | 1.29
313.15 K, x1 = 0.2001 | 753.48 | 1253.1 | 1.46
313.15 K, x1 = 0.298 | 761.93 | 1267.5 | 1.7
313.15 K, x1 = 0.4031 | 770.4 | 1281.9 | 1.99
313.15 K, x1 = 0.5001 | 777.69 | 1294.6 | 2.28
313.15 K, x1 = 0.6005 | 784.77 | 1307 | 2.63
313.15 K, x1 = 0.7003 | 791.4 | 1319.2 | 3.01
313.15 K, x1 = 0.7997 | 797.6 | 1330.2 | 3.45
313.15 K, x1 = 0.8994 | 803.45 | 1340.7 | 3.93
313.15 K, x1 = 1 | 809.03 | 1350.5 | 4.48
323.15 K, x1 = 0.1005 | 737.02 | 1200.9 | 1.09
323.15 K, x1 = 0.2001 | 746.35 | 1216.6 | 1.27
323.15 K, x1 = 0.298 | 754.88 | 1231.1 | 1.43
323.15 K, x1 = 0.4031 | 763.43 | 1245.9 | 1.66
323.15 K, x1 = 0.5001 | 770.78 | 1258.7 | 1.89
323.15 K, x1 = 0.6005 | 777.93 | 1271.3 | 2.16
323.15 K, x1 = 0.7003 | 784.61 | 1283.6 | 2.45
323.15 K, x1 = 0.7997 | 790.86 | 1294.8 | 2.78
323.15 K, x1 = 0.8994 | 796.76 | 1305.4 | 3.14
323.15 K, x1 = 1 | 802.38 | 1315.4 | 3.55
333.15 K, x1 = 0.1005 | 729.78 | 1165.1 | 0.945
333.15 K, x1 = 0.2001 | 739.2 | 1181 | 1.09
333.15 K, x1 = 0.298 | 747.81 | 1195.8 | 1.22
333.15 K, x1 = 0.4031 | 756.44 | 1210.7 | 1.4
333.15 K, x1 = 0.5001 | 763.86 | 1223.8 | 1.59
333.15 K, x1 = 0.6005 | 771.08 | 1236.5 | 1.8
333.15 K, x1 = 0.7003 | 777.81 | 1248.9 | 2.03
333.15 K, x1 = 0.7997 | 784.13 | 1260.3 | 2.29
333.15 K, x1 = 0.8994 | 790.08 | 1271 | 2.57
333.15 K, x1 = 1 | 795.75 | 1281.4 | 2.88
